From patent US20090054507A1, “CONTROL OF MALIGNANT CELLS BY KINASE INHIBITION” (CLEVELAND STATE UNIVERSITY, priority 2006, published 2009) come the findings set out here.

Each structure is given as a SMILES string.

One experiment concerns MEG-01 xenografts. Nature of the experiment: In vivo therapy of MEG-01 xenografts, tumor volume. On the set-up: species or system mice. The note with it: for tumor volume: subcutaneous in the neck, 2 weeks. The text has this: (§1) Creation of MEG-01 xenografts. Immunodeficient male athymic nude nu/nu mice were used, provided and housed by Dr. Lindner, D J from Taussig Cancer Center, Cleveland Clinic and Case Western Reserve University. The mice were checked every day. The mice were housed in filtered air flow cabinets with autoclaved bedding at a density of 5 mice/cage. They were fed autoclaved Purina Lab Rodent Chow® 5010 and HCl-acidified distilled water ad libitum and were placed in rooms with controlled temperature, humidity and 12-hr light-dark cycles. Procedures involving animals and their care were conducted in conformity with the institutional guidelines that are in compliance with national and international laws and policies (EEC Council Directive 86/609, OJL 358, Dec. 1, 1987, and the National Institutes of Health Guide for the Care and Use of Laboratory, Animals, NIH Publication 85-23, 1985).
For engraftment, cells in cell culture media were injected. MEG-01 myeloid blast crisis cells (10×10^6 cells/100 μl in cell culture media (RPMI 1640 1×, 10% FBS) were injected subcutaneously into the lower flanks of mice (left and right). Cells were counted with a hemacytometer using Trypan blue (only live cells were counted).
After 10 days the mice developed tumors large enough to start the treatment. Tumors were visible after 6-7 days from inoculation. The average weight of the mice typically ranged 30-35 g. Treatment with DMAT was started when tumors were at least 100-200 mm^3 volumes (prolate spheroid). Tumor volumes were calculated as prolate spheroid (4/3*π*(a)^2*(b), where “2a” is the minor axis and “2b” is the major axis of the prolate spheroid. “2a” and “2b” were measured with a caliper (mm). Animals were treated with DMAT for approximately 2 weeks. When tumor volumes reached a size unacceptable with the IACUC protocols, animals were sacrificed in a CO2 euthanasia chamber. Tumors were collected for further histological analysis. […]
In vivo therapy with DMAT of MEG-01 xenografts. […] Tumor diameters were measured using a caliper and tumor volume was calculated using the prolate-spheroid formula. […]

Experiment [1] relates to WM-164 cells. Nature of the experiment: Proliferation assay in vitro, WM-164. The format is cell-based, human. The following applies: for cell counts: four days. The text has this: Viability (proliferation) assay, Trypan blue exclusion. Cells were counted using a Neubauer hemacytometer.
Experiment [2] deals with WM-164 cells. Nature of the experiment: Anchorage independence in soft agar, WM-164. The format is cell-based, human. The note with it: DMAT 10 μM, one week.
The subject of a further experiment is WM-164 xenografts. Nature of the experiment: In vivo therapy of WM-164 xenografts, tumor volume. On the set-up: species or system mice.
Text: as §1, with “the xenografts MCF-7, SW-480 and WM-164.” for “MEG-01 xenografts.”, “male and female” for “male”, “DJ” for “D J”, “Mice” for “The mice”
For engraftment, cells in cell culture media were injected. […] Cells were counted with a hemacytometer using Trypan blue (only live cells were counted). […]
In vivo therapy with DMAT of WM-164 xenografts. […] Tumor diameters were measured using a caliper and tumor volume was calculated using the prolate-spheroid formula. […]

As to `CN(C)c1nc2c(Br)c(Br)c(Br)c(Br)c2[nH]1` [DMAT, 2-dimethylamino-4,5,6,7-tetrabromo-1H-benzimidazole], the tumor volume result with MEG-01 xenografts (DMAT 2 mg (in DMSO) per animal per day) is “proliferation arrest in vivo in large tumors and tumor ablation in small tumors”; in the experiment on MEG-01 xenografts (DMAT 3 mg (in DMSO) per animal per day), “proliferation arrest in vivo for large tumors and tumor ablation in small tumors”; in the experiment on WM-164 xenografts (DMAT 10 mg/kg (in DMSO) per day, fourteen days, control about 50 to about 1000 mm^3), “only a slight increase in tumor volume”. In addition, the “response of xenograft tumors to treatment (summary)” value in the experiment with MEG-01 xenografts (mouse, in vivo) is given as “tumor ablation”; in the experiment with WM-164 xenografts (small tumors remained at the end of the treatment), “significant reduction in tumor volume”. The “sensitivity of proliferation to DMAT compared with MCF-7 and SW-480” value in the experiment with WM-164 cells [1] is on record as “more resistant”. The cell counts result with WM-164 cells [1] (10 μM DMAT) is “cell counts between those of the control and those of the WM-164 cells treated with 20 μM”; in the experiment on WM-164 cells [1] (20 μM DMAT), “lowest cell counts”. Moreover, the “colonies in soft agar” value in the experiment on WM-164 cells [2] was “much smaller and fewer colonies”.
